Data taken from ChEMBL document CHEMBL1155889, “Structure-activity relationship studies on vitamin D lactam derivatives as vitamin D receptor antagonist” (Bioorg Med Chem Lett, 2008).
Activity calls are given as the source filed them. The rule behind the calls is not given here.

Columns and labels:
[1] = molecular target: T1, Vitamin D3 receptor (Homo sapiens) (UniProt P11473); test: Antagonist activity at VDR in human HL60 cells assessed as effect on 1,25-(OH)2-D3-induced cell differentiation at 3 uM by NBT assay; format: functional, cell-based; details: HL-60
T1 sequence (whole entry): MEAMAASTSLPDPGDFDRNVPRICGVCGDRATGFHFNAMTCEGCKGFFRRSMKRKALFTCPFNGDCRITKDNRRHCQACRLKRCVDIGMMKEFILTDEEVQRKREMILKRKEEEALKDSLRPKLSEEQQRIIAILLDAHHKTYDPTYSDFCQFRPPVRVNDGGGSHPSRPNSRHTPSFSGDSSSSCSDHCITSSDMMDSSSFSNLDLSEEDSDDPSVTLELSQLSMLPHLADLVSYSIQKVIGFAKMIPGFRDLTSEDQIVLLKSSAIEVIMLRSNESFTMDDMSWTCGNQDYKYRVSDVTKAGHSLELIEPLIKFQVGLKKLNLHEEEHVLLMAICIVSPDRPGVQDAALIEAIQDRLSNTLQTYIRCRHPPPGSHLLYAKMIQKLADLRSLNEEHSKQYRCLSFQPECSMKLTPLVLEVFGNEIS

[2] = molecular target: T2, Vitamin D3 receptor (Gallus gallus) (UniProt O42392); test: Displacement of [3H]1,25-(OH)2-D3 from chick intestinal VDR relative to 1,25-(OH)2-D3
T2 sequence (whole entry): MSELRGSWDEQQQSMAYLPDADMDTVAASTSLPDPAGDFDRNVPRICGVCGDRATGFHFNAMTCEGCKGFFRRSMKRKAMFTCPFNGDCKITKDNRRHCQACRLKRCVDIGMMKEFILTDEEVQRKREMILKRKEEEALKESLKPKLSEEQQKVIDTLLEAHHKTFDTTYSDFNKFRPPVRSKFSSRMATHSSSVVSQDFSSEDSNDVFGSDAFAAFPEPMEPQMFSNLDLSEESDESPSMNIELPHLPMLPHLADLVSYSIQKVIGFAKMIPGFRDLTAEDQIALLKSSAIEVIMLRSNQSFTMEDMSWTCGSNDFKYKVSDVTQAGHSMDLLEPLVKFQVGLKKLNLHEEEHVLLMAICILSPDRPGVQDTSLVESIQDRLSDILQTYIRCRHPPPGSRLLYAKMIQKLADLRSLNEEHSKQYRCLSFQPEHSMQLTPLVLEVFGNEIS

[3] = molecular target: T1, Vitamin D3 receptor (Homo sapiens); test: Antagonist activity at VDR in human HL60 cells assessed as effect on 1,25-(OH)2-D3-induced cell differentiation at 1 uM by NBT assay; format: functional, cell-based; details: HL-60
[4] = molecular target: T1, Vitamin D3 receptor (Homo sapiens); test: Agonist activity at human VDR expressed in monkey COS7 cells at <10 uM by luciferase reporter gene assay; format: functional, cell-based; details: COS-7

Activity [1] | relative binding affinity (RBA) [2] | Activity [3] | Activity [4] | SMILES
 | 12 |  |  | C=C1/C(=C\C=C2/CCC[C@]3(C)[C@@H]([C@H](C)C[C@H]4C[C@](C)(O)C(=O)N4CCc4cc(OC)cc(OC)c4)CC[C@@H]23)C[C@@H](O)C[C@@H]1O
 | 18.2 |  |  | C=C1/C(=C\C=C2/CCC[C@]3(C)[C@@H]([C@H](C)C[C@H]4C[C@](C)(O)C(=O)N4Cc4cc(OCCCC)cc(OCCCC)c4)CC[C@@H]23)C[C@@H](O)C[C@@H]1O
 | 185 |  |  | C=C1/C(=C\C=C2/CCC[C@]3(C)[C@@H]([C@H](C)C[C@@H]4C[C@@](C)(O)C(=O)N4Cc4cc(OC)cc(OC)c4)CC[C@@H]23)C[C@@H](O)C[C@@H]1O
 | 3.5 |  |  | C=C1/C(=C\C=C2/CCC[C@]3(C)[C@@H]([C@H](C)C[C@H]4C[C@](C)(O)C(=O)N4Cc4cc(OCC)cc(OCC)c4)CC[C@@H]23)C[C@@H](O)C[C@@H]1O
 | 57 |  |  | C=C1/C(=C\C=C2/CCC[C@]3(C)[C@@H]([C@H](C)C[C@H]4C[C@](C)(O)C(=O)N4CCCc4cc(OC)cc(OC)c4)CC[C@@H]23)C[C@@H](O)C[C@@H]1O
 | 131 |  |  | C=C1/C(=C\C=C2/CCC[C@]3(C)[C@@H]([C@H](C)C[C@H]4C[C@@](C)(O)C(=O)N4Cc4cc(OC)cc(OC)c4)CC[C@@H]23)C[C@@H](O)C[C@@H]1O
 | 1.9 |  |  | C=C1/C(=C\C=C2/CCC[C@]3(C)[C@@H]([C@H](C)C[C@H]4C[C@](C)(O)C(=O)N4Cc4cc(OC)cc(OC)c4)CC[C@@H]23)C[C@@H](O)C[C@@H]1O
inactive | < 1520 |  |  | C=C1/C(=C\C=C2/CCC[C@]3(C)[C@@H]([C@H](C)C[C@@H]4C[C@@](C)(O)C(=O)N4CCCc4cc(OC)cc(OC)c4)CC[C@@H]23)C[C@@H](O)C[C@@H]1O
 | < 1520 | inactive |  | C=C1/C(=C\C=C2/CCC[C@]3(C)[C@@H]([C@H](C)C[C@H]4C[C@@](C)(O)C(=O)N4CCc4cc(OC)cc(OC)c4)CC[C@@H]23)C[C@@H](O)C[C@@H]1O
 | < 1520 | inactive |  | C=C1/C(=C\C=C2/CCC[C@]3(C)[C@@H]([C@H](C)C[C@@H]4C[C@](C)(O)C(=O)N4CCc4cc(OC)cc(OC)c4)CC[C@@H]23)C[C@@H](O)C[C@@H]1O
 | 181 | inactive |  | C=C1/C(=C\C=C2/CCC[C@]3(C)[C@@H]([C@H](C)C[C@H]4C[C@](C)(O)C(=O)N4CCCc4cc(C(F)(F)F)cc(C(F)(F)F)c4)CC[C@@H]23)C[C@@H](O)C[C@@H]1O
inactive | < 1520 |  |  | C=C1/C(=C\C=C2/CCC[C@]3(C)[C@@H]([C@H](C)C[C@@H]4C[C@](C)(O)C(=O)N4CCCc4cc(OC)cc(OC)c4)CC[C@@H]23)C[C@@H](O)C[C@@H]1O
inactive | < 1520 |  |  | C=C1/C(=C\C=C2/CCC[C@]3(C)[C@@H]([C@H](C)C[C@H]4C[C@@](C)(O)C(=O)N4CCCc4cc(OC)cc(OC)c4)CC[C@@H]23)C[C@@H](O)C[C@@H]1O
 | 11.9 |  |  | C=C1/C(=C\C=C2/CCC[C@]3(C)[C@@H]([C@H](C)C[C@H]4C[C@](C)(O)C(=O)N4Cc4cc(OCCC)cc(OCCC)c4)CC[C@@H]23)C[C@@H](O)C[C@@H]1O
 | 284 | inactive |  | C=C1/C(=C\C=C2/CCC[C@]3(C)[C@@H]([C@H](C)C[C@@H]4C[C@@](C)(O)C(=O)N4CCc4cc(OC)cc(OC)c4)CC[C@@H]23)C[C@@H](O)C[C@@H]1O
 | 60 |  |  | C=C1/C(=C\C=C2/CCC[C@]3(C)[C@@H]([C@H](C)C[C@@H]4C[C@](C)(O)C(=O)N4Cc4cc(OC)cc(OC)c4)CC[C@@H]23)C[C@@H](O)C[C@@H]1O

Further lines, the molecule ahead of its results:

SMILES | Activity [1] | relative binding affinity (RBA) [2] | Activity [3] | Activity [4]
C=C1/C(=C\C=C2/CCC[C@]3(C)[C@@H]([C@H](C)C[C@H]4C[C@@](C)(O)C(=O)N4Cc4cc(C(F)(F)F)cc(C(F)(F)F)c4)CC[C@@H]23)C[C@@H](O)C[C@@H]1O | inactive | < 1520 |  | 
C=C1/C(=C\C=C2/CCC[C@]3(C)[C@@H]([C@H](C)C[C@H]4C[C@](C)(O)C(=O)N4Cc4cc(C(F)(F)F)cc(C(F)(F)F)c4)CC[C@@H]23)C[C@@H](O)C[C@@H]1O | inactive | 138 |  | 
C=C1/C(=C\C=C2/CCC[C@]3(C)[C@@H]([C@H](C)C[C@H]4C[C@](C)(O)C(=O)N4CCc4ccccc4)CC[C@@H]23)C[C@@H](O)C[C@@H]1O |  | 12.5 |  | 
C=C1/C(=C\C=C2/CCC[C@]3(C)[C@@H]([C@H](C)C[C@H]4C[C@](C)(O)C(=O)N4Cc4ccccc4)CC[C@@H]23)C[C@@H](O)C[C@@H]1O |  | 36.4 |  | 
C=C1/C(=C\C=C2/CCC[C@]3(C)[C@@H]([C@H](C)C[C@H]4C[C@](C)(O)C(=O)N4Cc4cc(O)cc(O)c4)CC[C@@H]23)C[C@@H](O)C[C@@H]1O |  | 9.6 | inactive | inactive
C=C1/C(=C\C=C2/CCC[C@]3(C)[C@@H]([C@H](C)C[C@@H]4C[C@](C)(O)C(=O)N4CCCc4cc(C(F)(F)F)cc(C(F)(F)F)c4)CC[C@@H]23)C[C@@H](O)C[C@@H]1O |  | < 5400 | inactive | 
C=C1/C(=C\C=C2/CCC[C@]3(C)[C@@H]([C@H](C)C[C@@H]4C[C@@](C)(O)C(=O)N4Cc4cc(C(F)(F)F)cc(C(F)(F)F)c4)CC[C@@H]23)C[C@@H](O)C[C@@H]1O | inactive | < 1520 |  | 
C=C1/C(=C\C=C2/CCC[C@]3(C)[C@@H]([C@H](C)C[C@@H]4C[C@@](C)(O)C(=O)N4CCCc4cc(C(F)(F)F)cc(C(F)(F)F)c4)CC[C@@H]23)C[C@@H](O)C[C@@H]1O |  | < 5400 | inactive | 
C=C1/C(=C\C=C2/CCC[C@]3(C)[C@@H]([C@H](C)C[C@H]4C[C@@](C)(O)C(=O)N4CCCc4cc(C(F)(F)F)cc(C(F)(F)F)c4)CC[C@@H]23)C[C@@H](O)C[C@@H]1O |  | < 5400 | inactive | 
C=C1/C(=C\C=C2/CCC[C@]3(C)[C@@H]([C@H](C)C[C@@H]4C[C@](C)(O)C(=O)N4Cc4cc(C(F)(F)F)cc(C(F)(F)F)c4)CC[C@@H]23)C[C@@H](O)C[C@@H]1O | inactive | < 1520 |  | 
C=C1/C(=C\C=C2/CCC[C@]3(C)[C@@H]([C@H](C)C[C@@H]4C[C@@](C)(O)C(=O)N4CCc4cc(C(F)(F)F)cc(C(F)(F)F)c4)CC[C@@H]23)C[C@@H](O)C[C@@H]1O | inactive | 236 |  | 
C=C1/C(=C\C=C2/CCC[C@]3(C)[C@@H]([C@H](C)C[C@@H]4C[C@](C)(O)C(=O)N4CCc4cc(C(F)(F)F)cc(C(F)(F)F)c4)CC[C@@H]23)C[C@@H](O)C[C@@H]1O | inactive | 757 |  | 
C=C1/C(=C\C=C2/CCC[C@]3(C)[C@@H]([C@H](C)C[C@H]4C[C@](C)(O)C(=O)N4CCc4cc(C(F)(F)F)cc(C(F)(F)F)c4)CC[C@@H]23)C[C@@H](O)C[C@@H]1O | inactive | 42 |  | 
C=C1/C(=C\C=C2/CCC[C@]3(C)[C@@H]([C@H](C)C[C@H]4C[C@@](C)(O)C(=O)N4CCc4cc(C(F)(F)F)cc(C(F)(F)F)c4)CC[C@@H]23)C[C@@H](O)C[C@@H]1O | inactive | 1180 |  | 
